Tests used:
[1] = system: genotype 1a stable HCV replicon (H77 strain) in Huh-7-derived cells; experiment: Stable subgenomic HCV replicon EC50, genotype 1a (Renilla luciferase); type: cell-based; conditions: Hepatitis C virus, stable replicon genotype 1a, 72 h, read-out: EC50 1A RLUC
Description: (§1) Antiviral potency (EC50) was determined in both stable subgenomic HCV replicon cell lines and transient-transfected HCV replicon cells. The term half maximal effective concentration (EC50) refers to the concentration of a drug which induces a response halfway between the baseline and maximum after the exposure time specified below.
(§2) Stable subgenomic HCV replicons for genotype 1a, 1 b, 2a, 3a, and 4a were established in Huh-7-derived cells as described by Lohmann et al (Lohmann V, Korner F, Koch J, et al Replication of subgenomic hepatitis C virus RNAs in a hepatoma cell line. Science 1999; 285:119-3). Each stable cell line contains a bicistronic HCV replicon that encodes a humanized Renilla luciferase (hRLuc) reporter gene fused to a selectable neomycin-resistance gene, followed by an EMCV IRES and the NS3-NS5B coding region of HCV. […] Luciferase activity was measured as a marker for intracellular HCV replication levels.
(§3) The genotype 1a stable replicon was derived from the H77 HCV strain and contained adaptive mutations P1496L and S2204I. The genotype 1 b stable replicon was derived from the Cont HCV strain and contained adaptive mutations E1202G, T1280I, and K1846T. […] The genotype 3a stable replicon was derived from the S52 HCV strain and contained adaptive mutations P1121 L, A1198T and S2210I (equivalent to S2204I in genotype 1). The genotype 4a stable replicon was derived from the ED43 HCV strain and contained adaptive mutations Q1691R and S2204I. All replicon cell lines were propagated in Huh-7-derived cells and maintained in Dulbecco's modified Eagle's Medium (DMEM) supplemented with 10% fetal bovine serum (FBS) and 0.5 mg/mL G418.
(§4) To perform EC50 assays, cells from each HCV replicon were dispensed into 384-well plates. Compounds were dissolved in DMSO at a concentration of 10 mM and diluted in DMSO using an automated pipetting instrument. Three-fold serially diluted compounds were directly added to the cells using an automated instrument. […] Seventy-two hours later, cells were lysed and Renilla luciferase activity were quantified as recommended by the manufacturer (Promega-Madison, Wis.). Non-linear regression was performed to calculate EC50 values.

[2] = system: genotype 1b stable HCV replicon in Huh-7-derived cells; experiment: Stable subgenomic HCV replicon EC50, genotype 1b (Renilla luciferase); type: cell-based; conditions: Hepatitis C virus, stable replicon genotype 1b, 72 h, read-out: EC50 1B RLUC
Description: as §1, §2, §3, §4

[3] = system: genotype 2a stable HCV replicon (JFH-1 strain) in Huh-7-derived cells; experiment: Stable subgenomic HCV replicon EC50, genotype 2a (Renilla luciferase); type: cell-based; conditions: Hepatitis C virus, stable replicon genotype 2a, 72 h, read-out: EC50 2A RLUC
Description: as §1, §2, §3, §4

[4] = system: genotype 3a transient HCV replicon (S52 strain) in Huh-7-derived cells; experiment: Transient-transfected HCV replicon EC50, genotype 3a wild type; type: cell-based; conditions: Hepatitis C virus; transient-transfected replicon genotype 3a wild type, 72 h; read-out: EC50 3A WT
[5] = system: genotype 1a (H77) wild-type transient HCV replicon in Huh-7-derived cells; experiment: Transient-transfected HCV replicon EC50, genotype 1a wild type; type: cell-based; conditions: Hepatitis C virus; transient-transfected replicon genotype 1a wild type, 72 h; read-out: EC50 1A WT
[6] = system: genotype 1a transient HCV replicon, NS3/4a protease inhibitor resistant variant R155K, in Huh-7-derived cells; experiment: Transient-transfected HCV replicon EC50, genotype 1a R155K; type: cell-based; conditions: Hepatitis C virus, 72 h, read-out: EC50 1A R155K
[7] = system: genotype 1b (Con1) wild-type transient HCV replicon in Huh-7-derived cells; experiment: Transient-transfected HCV replicon EC50, genotype 1b wild type; type: cell-based; conditions: Hepatitis C virus; transient-transfected replicon genotype 1b wild type, 72 h; read-out: EC50 1B WT
[8] = system: genotype 3a stable HCV replicon (S52 strain) in Huh-7-derived cells; experiment: Stable subgenomic HCV replicon EC50, genotype 3a (Renilla luciferase); type: cell-based; conditions: Hepatitis C virus, 72 h, read-out: EC50 3A RLUC
Description: as §1, §2, §3, §4

[9] = system: genotype 4a stable HCV replicon (ED43 strain) in Huh-7-derived cells; experiment: Stable subgenomic HCV replicon EC50, genotype 4a (Renilla luciferase); type: cell-based; conditions: Hepatitis C virus, 72 h, read-out: EC50 4A RLUC
Description: as §1, §2, §3, §4

[10] = system: genotype 1b transient HCV replicon, NS3/4a protease inhibitor resistant variant D168A, in Huh-7-derived cells; experiment: Transient-transfected HCV replicon EC50, genotype 1b D168A; type: cell-based; conditions: Hepatitis C virus, 72 h, read-out: EC50 1B D168A
NS3 genotype 1b protease = target: T1, NS3 genotype 1b protease (Hepatitis C virus genotype 1b, UniProt Q9WMX2, E1202G); experiment: Ki determination, NS3 protease genotype 1b (fluorogenic depsipeptide substrate); type: biochemical
T1 construct: Purified NS3 protease domain (amino acids 1-181) of the genotype 1b and 3a virus were generated as above; K3 hexahistidine tag (N); rTEV protease cleavage site (N); made in house; host or cells: E. coli BL21AI, pET28 vector p28-N6H-Tev-NS3(181)1b
Text: The coding sequence of the genotype 1b (con-1 strain) HCV NS3 protease domain was PCR amplified from a plasmid encoding the I389luc-ubi-neo/NS3-3′/ET replicon (Reblikon, Mainz, Germany). The 5′-PCR primer was designed to encode an N-terminal K3 hexahistidine tag and to insert an in-frame recombinant Tobacco Etch virus (rTEV) protease cleavage site into the NS3 coding sequence. The resulting DNA fragment was cloned into the pET28 protein expression vector (Invitrogen, Carlsbad, Calif.) yielding the p28-N6H-Tev-NS3(181)1b.
BL21AI bacteria (Invitrogen, Carlsbad, Calif.) were transformed with genotype 1b or 3 NS3 expression vectors and used to inoculate a 20 L fermentation vessel (Sartorius BBI System Inc., Bethlehem, Pa.), containing 18 L of fresh 2YT medium supplemented with 50 μg/mL kanamycin. When cell densities reached an OD600 of 1, the temperature of the cultures was reduced from 37° C. to 28° C. and induction was immediately initiated by the addition of 30 μM ZnSO4, 14 mM L-arabinose and 1 mM Isopropyl β-D-thiogalactoside (IPTG) final concentrations. Cells were harvested by centrifugation four hours post-induction and were stored as frozen pellets at −80° C. prior to NS3 protein purification.
Cell pellets were thawed and resuspended at 10 mL/g cells in lysis buffer containing 50 mM tris pH 7.6, 300 mM NaCl, 0.1% 3-[(3-cholamidopropyl)dimethylammonio]-1-propanesulfonate (CHAPS), 5% glycerol, and 2 mM β-mercaptoethanol. Cell suspensions were then sonicated, filtered through cheesecloth, and passed three times through a microfluidizer at 18,000 pounds/in^2. The resulting lysates were centrifuged at 15500 rpm for 45 minutes and supernatants were loaded onto a HisTrap HP column (GE Lifesciences) pre-equilibrated with five volumes of Ni buffer A (50 mM tris pH 7.6, 300 mM NaCl, 0.1% CHAPS, 5% glycerol, 2 mM β-mercaptoethanol, 50 mM imidazole-HCl). Proteins were eluted with a 0-100% gradient of Ni buffer A plus 500 mM imidazole-HCl and fractions were collected and pooled. The HisTrap pool was diluted 1:10 with SP-A buffer (50 mM tris pH 7.0, 10% glycerol, 2 mM dithiothreitol (DTT)) and loaded onto a HiTrap SP-HP column (GE Lifesciences) equilibrated with SP-A buffer. NS3 protease was eluted with a 0-100% SP-B buffer (SP-A buffer plus 1 M NaCl) gradient. Concentrated pools of NS3-containing SP fractions were aliquoted, snap frozen in liquid nitrogen and stored at −80° C.
Purified NS3 protease domain (amino acids 1-181) of the genotype 1b and 3a virus were generated as above.
Reactions were run at room temperature in buffer consisting of 50 mM HEPES, 40% glycerol, 0.05% Triton X-100, 10 mM DTT, and 10% DMSO. The final assay solutions contained 50 pM NS3 genotype 1b protease or 200 pM genotype 3a protease, 20 μM NS4A peptide, and 4 μM substrate (genotype 1 b) or 2 μM substrate (genotype 3a). Inhibitor concentrations varied from 100 nM to 5 pM in 3-fold dilutions, and no-inhibitor controls were included.
Compound dilutions were made in DMSO at 20× final concentration. Reaction mixtures were prepared in 96-well assay plates. A solution of enzyme and NS4A peptide in assay buffer (25 μL volume with both reagents at 4× final concentration) was mixed with 45 μL assay buffer and 5 μL of either inhibitor or DMSO, and pre-incubated at room temperature for 1 hour. The reaction was started by addition of 25 μL substrate solution at 4× final concentration. Plates were mixed vigorously for 5-10 seconds and reactions were allowed to proceed for 90 minutes. fluorescence was measured every 30 s between 90 and 120 minutes reaction time using a Tecan InfiniTe M1000 or PerkinElmer Envision multimode plate reader with an excitation wavelength of 340 nm and an emission wavelength of 490 nm.
To determine the K, rates were plotted as a function of inhibitor concentration, and the data were fit with equation 1 (Morrison, J. F., Biochimica et Biophysica Acta 1969, 185, 269-286) to calculate Ki^app using GraphPad Prism 5.

Structure (SMILES) | EC50 [1] [nM] | EC50 [2] [nM] | EC50 [3] [nM] | EC50 [4] [nM] | EC50 [5] [nM] | EC50 [6] [nM] | EC50 [7] [nM] | EC50 [8] [nM] | EC50 [9] [nM] | EC50 [10] [nM] | Ki (NS3 genotype 1b protease) [nM]
C=C[C@@H]1C[C@]1(NC(=O)[C@@H]1[C@H](CC)[C@@H]2CN1C(=O)[C@H](C(C)(C)C)NC(=O)O[C@@H]1C[C@H]1CCCCC(F)(F)c1nc3ccc(OC)cc3nc1O2)C(=O)NS(=O)(=O)C1CC1 [Example 92, (1aR,5S,8S,9S,10R,22aR)-5-tert-butyl-N-{(1R,2S)-1-[(cyclopropylsulfonyl)carbamoyl]-2-ethenylcyclopropyl}-9-ethyl-18,18-difluoro-14-methoxy-3,6-dioxo-1,1a,3,4,5,6,9,10,18,19,20,21,22,22a-tetradecahydro-8H-7,10-methanocyclopropa[18,19][1,10,3,6]dioxadiazacyclononadecino[11,12-b]quinoxaline-8-carboxamide] | 3.3 | 3.2 | 4.6 | 8 | 3 | 3 | 1.7 |  |  |  | 
CC[C@@H]1[C@@H]2CN(C(=O)[C@H](C(C)(C)C)NC(=O)O[C@@H]3C[C@H]3CC/C=C/C(F)(F)c3nc4ccc(OC)cc4nc3O2)[C@@H]1C(=O)N[C@]1(C(=O)NS(=O)(=O)C2(C)CC2)C[C@H]1C(F)F [Example 89, (1aR,5S,8S,9S,10R,19E,22aR)-5-tert-butyl-N-[(1R,2R)-2-(difluoromethyl)-1-{[(1-methylcyclopropyl)sulfonyl]carbamoyl}cyclopropyl]-9-ethyl-18,18-difluoro-14-methoxy-3,6-dioxo-1,1a,3,4,5,6,9,10,18,21,22,22a-dodecahydro-8H-7,10-methanocyclopropa[18,19][1,10,3,6]dioxadiazacyclononadecino[11,12-b]quinoxaline-8-carboxamide] | 6 | 6.1 | 4.3 | 5.5 | 6 | 3.7 | 3.2 | 19 | 4.6 | 5.1 | 
COc1ccc2nc3c(nc2c1)O[C@H]1CN(C(=O)[C@H](C(C)(C)C)NC(=O)O[C@@H]2C[C@H]2CCCCC3)[C@H](C(=O)N[C@]2(C(=O)NS(=O)(=O)C3(C)CC3)C[C@H]2C(F)F)[C@@H]1C1CC1 [Example 31, (1aR,5S,8S,9S,10R,22aR)-5-tert-butyl-9-cyclopropyl-N-[(1R,2R)-2-(difluoromethyl)-1-{[(1-methylcyclopropyl)sulfonyl]carbamoyl}cyclopropyl]-14-methoxy-3,6-dioxo-1,1a,3,4,5,6,9,10,18,19,20,21,22,22a-tetradecahydro-8H-7,10-methanocyclopropa[18,19][1,10,3,6]dioxadiazacyclononadecino[11,12-b]quinoxaline-8-carboxamide] | 40 | 18 | 63 |  | 27 | 154 | 6.6 | 2070 | 20 | 805 | 0.13

From patent US20150175655A1 (priority 2012, published 2015)
